# Assay results published in patent US20260028354A1, “TETRAHYDRONAPHTHALENE DERIVATIVES AS ESTROGEN RECEPTOR DEGRADERS” (REGENT OF THE UNIVERSITY OF MICHIGAN, priority 2022, published 2026).
# Experiment: Western blot analysis for "B" compounds
# Assay type: cell-based
# Details: read-out: Traditional Western Degradation Potency (DC50)
# In short: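 Target protein levels given as relative mean band intensity over GAPDH from scanned immunoblots. Lysates of treated cells in RIPA buffer, equalized by BCA, separated on 10% gels and transferred to PVDF.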
row,Compound,DC50 [nM]
1,"O=C1CCC(N2Cc3cc4c(cc3C2=O)C(=O)N(CC2CN(CC3CCN(c5ccc([C@@H]6c7ccc(O)cc7CC[C@@H]6c6ccccc6)cc5)CC3)C2)C4)C(=O)N1 (stereo partly drawn) [Compound B305, 2-(2,6-dioxopiperidin-3-yl)-6-((1-((1-(4-((1R,2S)-6-hydroxy-2-phenyl-1,2,3,4-tetrahydronaphthalen-1-yl)phenyl)piperidin-4-yl)mcthyl)azctidin-3-yl)methyl)-2,3,5,6-tctrahydropyrrolo[3,4-f]isoindole-1,7-dione]",> 100
2,"O=C1CCC(N2C(=O)c3cc4c(cc3C2=O)CN(C2CCN(CC3(F)CN(c5ccc([C@@H]6c7ccc(O)cc7CC[C@@H]6c6ccccc6)cc5)C3)CC2)C4)C(=O)N1 (stereo partly drawn) [Compound B73, 2-(2,6-dioxopiperidin-3-yl)-6-(1-((3-fluoro-1-(4-((1R,2S)-6-hydroxy-2-phenyl-1,2,3,4-tetrahydronaphthalen-1-yl)phenyl)azetidin-3-yl)methyl)piperidin-4-yl)-6,7-dihydropyrrolo[3,4-f]isoindole-1,3(2H,5H)-dione]",> 100
3,"O=C1CCC(N2C(=O)c3cc4c(cc3C2=O)CN(CC(=O)N2CCC3(CC2)CCN(c2ccc([C@@H]5c6ccc(O)cc6CC[C@@H]5c5ccccc5)cc2)C3)C4)C(=O)N1 (mixture of isomers) [Compound B20, 2-(2,6-dioxopiperidin-3-yl)-6-(2-(2-(4-((1R,2S)-6-hydroxy-2-phenyl-1,2,3,4-tetrahydronaphthalen-1-yl)phenyl)-2,8-diazaspiro[4.5]decan-8-yl)-2-oxoethyl)-6,7-dihydropyrrolo[3,4-f]isoindole-1,3(2H,5H)-dione]",10 to 100
4,"O=C1CCC(N2C(=O)c3cc4c(cc3C2=O)CN(CC2(F)CCN(CC3CCN(c5ccc([C@@H]6c7ccc(O)cc7CC[C@@H]6c6ccccc6)cc5)CC3)CC2)C4)C(=O)N1 (stereo partly drawn) [Compound B270, 2-(2,6-dioxopiperidin-3-yl)-6-((4-fluoro-1-((1-(4-((1R,2S)-6-hydroxy-2-phenyl-1,2,3,4-tetrahydronaphthalen-1-yl)phenyl)piperidin-4-yl)methyl)piperidin-4-yl)methyl)-6,7-dihydropyrrolo[3,4-f]isoindole-1,3(2H,5H)-dione]",> 100
5,"O=C1CCC(N2C(=O)c3cc4c(cc3C2=O)CN(CC2CCN(CC3CN(c5ccc([C@@H]6c7ccc(O)cc7CC[C@@H]6c6ccccc6)cc5)C3)CC2)C4)C(=O)N1 (stereo partly drawn) [Compound B62, 2-(2,6-dioxopiperidin-3-yl)-6-((1-((1-(4-((1R,2S)-6-hydroxy-2-phenyl-1,2,3,4-tetrahydronaphthalen-1-yl)phenyl)azetidin-3-yl)methyl)piperidin-4-yl)methyl)-6,7-dihydropyrrolo[3,4-f]isoindole-1,3(2H,5H)-dione]",10 to 100
6,"O=C1CCC(N2C(=O)c3cc4c(cc3C2=O)CN(CC(=O)N2CCC3(CC2)CCN(c2ccc([C@@H]5c6ccc(O)cc6CC[C@@H]5c5ccccc5)cc2)CC3)CC4)C(=O)N1 (stereo partly drawn) [Compound B195, 2-(2,6-dioxopiperidin-3-yl)-6-(2-(9-(4-((1R,2S)-6-hydroxy-2-phenyl-1,2,3,4-tetrahydronaphthalen-1-yl)phenyl)-3,9-diazaspiro[5.5]undecan-3-yl)-2-oxoethyl)-5,6,7,8-tetrahydro-1H-pyrrolo[3,4-g]isoquinoline-1,3(2H)-dione]",10 to 100
7,"O=C1CCC(N2C(=O)c3cc4c(cc3C2=O)CN(CCN2CCC3(CC2)CCN(c2ccc([C@@H]5c6ccc(O)cc6CC[C@@H]5c5ccccc5)cc2)CC3)C4)C(=O)N1 (mixture of isomers) [Compound B198, 2-(2,6-dioxopiperidin-3-yl)-6-(2-(9-(4-((1R,2S)-6-hydroxy-2-phenyl-1,2,3,4-tetrahydronaphthalen-1-yl)phenyl)-3,9-diazaspiro[5.5]undecan-3-yl)ethyl)-6,7-dihydropyrrolo[3,4-f]isoindole-1,3(2H,5H)-dione]",10 to 100
8,"O=C1CCC(N2Cc3cc4c(cc3C2=O)CN(CC(=O)N2CCC3(CCN(c5ccc([C@@H]6c7ccc(O)cc7CC[C@@H]6c6ccccc6)cc5)CC3)C2)C4)C(=O)N1 (mixture of isomers) [Compound B182, 3-(6-(2-(8-(4-((1R,2S)-6-hydroxy-2-phenyl-1,2,3,4-tetrahydronaphthalen-1-yl)phenyl)-2,8-diazaspiro[4.5]decan-2-yl)-2-oxoethyl)-1-oxo-3,5,6,7-tetrahydropyrrolo[3,4-f]isoindol-2(1H)-yl)piperidine-2,6-dione]",10 to 100
9,"O=C1CCC(N2C(=O)c3cc4c(cc3C2=O)CN(CC(=O)N2CCC3(C2)CN(c2ccc([C@@H]5c6ccc(O)cc6CC[C@@H]5c5ccccc5)cc2)C3)C4)C(=O)N1 (mixture of isomers) [Compound B187, 2-(2,6-dioxopiperidin-3-yl)-6-(2-(2-(4-((1R,2S)-6-hydroxy-2-phenyl-1,2,3,4-tetrahydronaphthalen-1-yl)phenyl)-2,6-diazaspiro[3.4]octan-6-yl)-2-oxoethyl)-6,7-dihydropyrrolo[3,4-f]isoindole-1,3(2H,5H)-dione]",10 to 100
10,"O=C1CCC(N2C(=O)c3cc4c(cc3C2=O)CN([C@H]2CC[C@@H](NC3CN(c5ccc([C@@H]6c7ccc(O)cc7CC[C@@H]6c6ccccc6)cc5)C3)CC2)C4)C(=O)N1 (stereo partly drawn) [Compound B102, 2-(2,6-dioxopiperidin-3-yl)-6-((1S,4s)-4-((1-(4-((1R,2S)-6-hydroxy-2-phenyl-1,2,3,4-tetrahydronaphthalen-1-yl)phenyl)azetidin-3-yl)amino)cyclohexyl)-6,7-dihydropyrrolo[3,4-f]isoindole-1,3(2H,5H)-dione]",> 100

# Second part, the molecule after the results:
row,DC50 [nM],Compound
1,> 100,"O=C1CCC(N2Cc3cc4c(cc3C2=O)CN(C2CCN(CC3CN(c5ccc([C@@H]6c7ccc(O)cc7CC[C@@H]6c6ccccc6)cc5)C3)CC2)C4)C(=O)N1 (stereo partly drawn) [Compound B78, 3-(6-(1-((1-(4-((1R,2S)-6-hydroxy-2-phenyl-1,2,3,4-tetrahydronaphthalen-1-yl)phenyl)azetidin-3-yl)methyl)piperidin-4-yl)-1-oxo-3,5,6,7-tetrahydropyrrolo[3,4-f]isoindol-2(1H)-yl)piperidine-2,6-dione]"
2,> 100,"O=C1CCC(N2C(=O)c3cc4c(cc3C2=O)CN(CC2CCN(CC3(F)CN(c5ccc([C@@H]6c7ccc(O)cc7CC[C@@H]6c6ccccc6)cc5)C3)CC2)C4)C(=O)N1 (stereo partly drawn) [Compound B74, 2-(2,6-dioxopiperidin-3-yl)-6-((1-((3-fluoro-1-(4-((1R,2S)-6-hydroxy-2-phenyl-1,2,3,4-tetrahydronaphthalen-1-yl)phenyl)azetidin-3-yl)methyl)piperidin-4-yl)methyl)-6,7-dihydropyrrolo[3,4-f]isoindole-1,3(2H,5H)-dione]"
3,10 to 100,"O=C1CCC(N2C(=O)c3cc4c(cc3C2=O)CN(CCN2CC3(CCN(c5ccc([C@@H]6c7ccc(O)cc7CC[C@@H]6c6ccccc6)cc5)CC3)C2)C4)C(=O)N1 (mixture of isomers) [Compound B197, 2-(2,6-dioxopiperidin-3-yl)-6-(2-(7-(4-((1R,2S)-6-hydroxy-2-phenyl-1,2,3,4-tetrahydronaphthalen-1-yl)phenyl)-2,7-diazaspiro[3.5]nonan-2-yl)ethyl)-6,7-dihydropyrrolo[3,4-f]isoindole-1,3(2H,5H)-dione]"
4,> 100,"O=C1CCC(N2C(=O)c3cc4c(cc3C2=O)CN(CC2CC3(CCN(C(=O)c5ccc([C@@H]6c7ccc(O)cc7CC[C@@H]6c6ccccc6)cc5)CC3)C2)C4)C(=O)N1 (stereo partly drawn) [Compound B289, 2-(2,6-dioxopiperidin-3-yl)-6-((7-(4-((1R,2S)-6-hydroxy-2-phenyl-1,2,3,4-tetrahydronaphthalen-1-yl)benzoyl)-7-azaspiro[3.5]nonan-2-yl)methyl)-6,7-dihydropyrrolo[3,4-f]isoindole-1,3(2H,5H)-dione]"
5,> 100,"O=C1CCC(N2C(=O)c3cc4c(cc3C2=O)CN(CC2CN(CC3CCN(c5ccc([C@@H]6c7ccc(O)cc7CC[C@@H]6c6ccc(F)cc6)cc5)CC3)C2)C4)C(=O)N1 (stereo partly drawn) [Compound B67, 2-(2,6-dioxopiperidin-3-yl)-6-((1-((1-(4-((1R,2S)-2-(4-fluorophenyl)-6-hydroxy-1,2,3,4-tetrahydronaphthalen-1-yl)phenyl)piperidin-4-yl)methyl)azetidin-3-yl)methyl)-6,7-dihydropyrrolo[3,4-f]isoindole-1,3(2H,5H)-dione]"
6,10 to 100,"O=C1CCC(N2Cc3c(ccc4c3OC[C@H]3CN(CC5CCN(c6ccc([C@@H]7c8ccc(O)cc8CC[C@@H]7c7ccccc7)cc6)CC5)CCN43)C2=O)C(=O)N1 (stereo partly drawn) [Compound B298, 3-((R)-7-((1-(4-((1R,2S)-6-hydroxy-2-phenyl-1,2,3,4-tetrahydronaphthalen-1-yl)phenyl)piperidin-4-yl)methyl)-1-oxo-1,3,5,5a,6,7,8,9-octahydro-2H-pyrazino[1′,2′:4,5][1,4]oxazino[2,3-e]isoindol-2-yl)piperidine-2,6-dione]"
7,> 100,"O=C1CCC(N2C(=O)c3cc4c(cc3C2=O)CN(C2CCC(C(=O)NC3CN(c5ccc([C@@H]6c7ccc(O)cc7CC[C@@H]6c6ccccc6)cc5)C3)CC2)C4)C(=O)N1 (stereo partly drawn) [Compound B98, 4-(6-(2,6-dioxopiperidin-3-yl)-5,7-dioxo-3,5,6,7-tetrahydropyrrolo[3,4-f]isoindol-2(1H)-yl)-N-(1-(4-((1R,2S)-6-hydroxy-2-phenyl-1,2,3,4-tetrahydronaphthalen-1-yl)phenyl)azetidin-3-yl)cyclohexane-1-carboxamide]"
8,> 100,"O=C1CCC(N2C(=O)c3cc4c(cc3C2=O)CN(CC2CCC(NC3CN(c5ccc([C@@H]6c7ccc(O)cc7CC[C@@H]6c6ccccc6)cc5)C3)CC2)C4)C(=O)N1 (stereo partly drawn) [Compound B99, 2-(2,6-dioxopiperidin-3-yl)-6-((4-((1-(4-((1R,2S)-6-hydroxy-2-phenyl-1,2,3,4-tetrahydronaphthalen-1-yl)phenyl)azetidin-3-yl)amino)cyclohexyl)methyl)-6,7-dihydropyrrolo[3,4-f]isoindole-1,3(2H,5H)-dione]"
9,> 100,"O=C1CCC(N2Cc3cc4c(cc3C2=O)CN(C2CN(CC3CCN(c5ccc([C@@H]6c7ccc(O)cc7CC[C@@H]6c6ccccc6)cc5)CC3)C2)C4=O)C(=O)N1 (stereo partly drawn) [Compound B302, 2-(2,6-dioxopiperidin-3-yl)-6-(1-((1-(4-((1R,2S)-6-hydroxy-2-phenyl-1,2,3,4-tetrahydronaphthalen-1-yl)phenyl)piperidin-4-yl)methyl)azetidin-3-yl)-2,3,6,7-tetrahydropyrrolo[3,4-f]isoindole-1,5-dione]"
